The results in this text go back to ChEMBL document CHEMBL1130869, “Peptide-based inhibitors of the hepatitis C virus serine protease” (Bioorg Med Chem Lett, 1998).

Starred links: 1 amine or outer side, 2 acyl side, 3 side chain; linkers in the order of their positions; H or OH if unused. Non-standard residues stand in square brackets, D forms with d. Residues, ends and D or L forms follow the SMILES beside them. Pen = CC(C)(S)[C@H](N)C(=O)O; Suc = O=C(CCC(=O)[*:2])[*:1]; Tle = CC(C)(C)[C@H](N)C(=O)O; Dap = NC[C@H](N)C(=O)O

In general, IC50 refers to the point on the concentration scale where inhibition reaches its midpoint.

For one assay, the target named is Hepatitis C virus serine protease, NS3/NS4A (Hepatitis C virus, UniProt A3EZI9+D2K2A8). The assay is described as follows: The apparent Ki value against NS3-4Apep protease. Type of assay: protein-complex assay, Hepacivirus hominis. Conditions: read-out: Ki app.
Chain of Hepatitis C virus serine protease, NS3/NS4A (D2K2A8 whole entry): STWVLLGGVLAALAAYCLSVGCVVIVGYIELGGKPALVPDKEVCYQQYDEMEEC
Chain of Hepatitis C virus serine protease, NS3/NS4A (A3EZI9 whole entry): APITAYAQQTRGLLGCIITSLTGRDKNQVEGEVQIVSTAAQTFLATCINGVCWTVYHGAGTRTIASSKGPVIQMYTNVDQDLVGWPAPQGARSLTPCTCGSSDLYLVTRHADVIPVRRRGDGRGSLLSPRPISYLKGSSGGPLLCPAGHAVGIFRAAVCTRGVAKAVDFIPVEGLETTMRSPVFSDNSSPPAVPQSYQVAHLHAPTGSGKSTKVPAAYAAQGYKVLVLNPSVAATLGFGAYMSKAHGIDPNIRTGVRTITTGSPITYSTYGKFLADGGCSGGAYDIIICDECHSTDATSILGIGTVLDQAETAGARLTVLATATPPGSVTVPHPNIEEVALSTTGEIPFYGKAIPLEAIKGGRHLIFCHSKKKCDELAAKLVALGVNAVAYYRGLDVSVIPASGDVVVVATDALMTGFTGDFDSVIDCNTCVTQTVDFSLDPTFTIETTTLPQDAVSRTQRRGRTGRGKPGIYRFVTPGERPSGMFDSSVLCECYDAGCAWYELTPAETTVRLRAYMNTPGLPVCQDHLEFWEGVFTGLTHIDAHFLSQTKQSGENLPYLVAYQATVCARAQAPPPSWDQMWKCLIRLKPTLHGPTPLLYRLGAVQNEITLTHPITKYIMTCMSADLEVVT
Turning to H-DDIVPC-OH, the Ki was 14 µM.
Regarding `CC[C@H](C)[C@H](NC(=O)C(CC(=O)O)NC(=O)[C@H](CC(=O)O)NC(C)=O)C(=O)N[C@H](C(=O)N1CCC[C@H]1C(=O)N[C@@H](CS)C(=O)O)C(C)C` (single isomer, unassigned), the Ki worked out at 0.6 µM.

In the next assay the target is NS3 (Hepatitis C virus, UniProt A3EZJ3). The assay is described as follows: Inhibitory activity against NS3-4A pep protease. On the set-up: species or system Hepacivirus hominis.
Chain of NS3 (A3EZJ3 whole entry): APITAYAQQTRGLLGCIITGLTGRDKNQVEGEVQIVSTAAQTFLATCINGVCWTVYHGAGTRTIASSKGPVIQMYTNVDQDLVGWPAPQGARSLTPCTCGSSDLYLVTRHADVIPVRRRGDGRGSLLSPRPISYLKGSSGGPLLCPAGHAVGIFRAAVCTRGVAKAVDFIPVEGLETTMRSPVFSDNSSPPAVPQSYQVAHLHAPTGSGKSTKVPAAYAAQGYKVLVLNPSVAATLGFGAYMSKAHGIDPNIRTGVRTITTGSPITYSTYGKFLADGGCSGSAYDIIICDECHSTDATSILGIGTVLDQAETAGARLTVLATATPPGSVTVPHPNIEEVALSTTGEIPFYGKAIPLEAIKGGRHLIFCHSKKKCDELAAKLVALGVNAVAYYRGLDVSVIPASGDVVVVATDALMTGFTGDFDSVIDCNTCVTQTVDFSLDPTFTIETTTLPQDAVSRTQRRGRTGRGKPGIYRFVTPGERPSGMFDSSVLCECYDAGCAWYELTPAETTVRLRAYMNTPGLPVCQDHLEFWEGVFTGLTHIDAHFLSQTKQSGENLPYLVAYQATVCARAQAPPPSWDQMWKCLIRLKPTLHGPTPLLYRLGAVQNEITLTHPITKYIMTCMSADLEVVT
Conditions: not given
On to `CC[C@H](C)[C@H](NC(=O)[C@H](CC(=O)O)NC(=O)[C@H](C)NC(C)=O)C(=O)N[C@H](C(=O)N1CCC[C@H]1C(=O)N[C@@H](CS)C(=O)O)C(C)C`, for which half-maximal inhibition (IC50) was put at 200 µM.
The same measure, in the same setting: the same measure for `CC[C@H](C)[C@H](NC(=O)[C@@H](NC(=O)[C@H](CC(=O)O)NC(C)=O)C(C)(C)C)C(=O)N[C@H](C(=O)N1CCC[C@H]1C(=O)N[C@@H](CS)C(=O)O)C(C)C` (Ac-D[Tle]IVPC-OH): 20 µM; for `CC[C@H](C)[C@H](NC(=O)[C@H](CC(=O)O)NC(=O)CCC(=O)O)C(=O)N[C@H](C(=O)N1CCC[C@H]1C(=O)N[C@@H](CS)C(=O)O)C(C)C`: 33 µM.
The molecule `CC[C@H](C)[C@H](NC(=O)[C@@H](NC(=O)[C@H](CC(=O)O)NC(C)=O)C(C)C)C(=O)N[C@H](C(=O)N1CCC[C@H]1C(=O)N[C@@H](CS)C(=O)O)C(C)C` had an IC50 of 52 µM.
Still for that read-out and setting: the same measure for Ac-DDIVPA-OH: 710 µM; for H-DDIVPC-OH: 71 µM; for `CC[C@H](C)[C@H](NC(=O)[C@H](CC(=O)O)NC(=O)[C@H](CC(=O)O)NC(C)=O)C(=O)N[C@H](C(=O)N1CCC[C@H]1C(=O)N[C@@H](CN)C(=O)O)C(C)C` (Ac-DDIVP[Dap]-OH): over 1000 µM.
Same read-out and setting: as for `CC[C@H](C)[C@H](NC(=O)[C@H](CC(=O)O)NC(=O)[C@H](CC(=O)O)NC(C)=O)C(=O)N[C@H](C(=O)N1CCC[C@H]1C(=O)N[C@H](C(=O)O)C(C)(C)S)C(C)C` (Ac-DDIVP[Pen]-OH), the figure is 630 µM; as for `CC[C@H](C)[C@H](NC(=O)[C@H](CC(=O)O)NC(=O)[C@H](CC(=O)O)NC(C)=O)C(=O)N[C@H](C(=O)N1CCC[C@H]1C(=O)N[C@@H](CS)C(=O)O)C(C)C` [listing 1 of 2 here], over 1000 µM.
The same measure, in the same setting: the same measure for `CC[C@H](C)[C@H](NC(=O)C(CC(=O)O)NC(=O)CCC(=O)O)C(=O)N[C@H](C(=O)N1CCC[C@H]1C(=O)N[C@@H](CS)C(=O)O)C(C)C` (single isomer, unassigned): 76 µM; for Ac-DDIVPS-OH: over 1000 µM.
For the molecule Ac-DIVPC-OH, the IC50 is 130 µM.
The same measure, in the same setting: as for `CC[C@H](C)[C@H](NC(=O)[C@H](CC(=O)O)NC(=O)[C@H](CC(=O)O)NC(C)=O)C(=O)N[C@H](C(=O)N1CCC[C@H]1C(=O)N[C@@H](CSC)C(=O)O)C(C)C` (Ac-DDIVPC(Me)-OH), the figure is 160 µM; as for `CC[C@H](C)[C@H](NC(=O)C(CC(=O)O)NC(=O)[C@H](CC(=O)O)NC(C)=O)C(=O)N[C@H](C(=O)N1CCC[C@H]1C(=O)N[C@@H](CS)C(=O)O)C(C)C` (single isomer, unassigned), 4 µM; as for Ac-DDIVPM-OH, 500 µM.
`CC[C@H](C)[C@H](NC(=O)C(CC(=O)O)NC(=O)[C@H](C)NC(C)=O)C(=O)N[C@H](C(=O)N1CCC[C@H]1C(=O)N[C@@H](CS)C(=O)O)C(C)C` (single isomer, unassigned) yielded an IC50 of 200 µM. This IC50 lies about 2.5-fold lower than the previous one.
Molecule Ac-DDIVAC-OH came in with an IC50 of 93 µM.
On the same count and under the same terms, the same measure for `CC[C@H](C)[C@H](NC(=O)[C@H](CC(=O)O)NC(=O)[C@H](CC(=O)O)NC(C)=O)C(=O)N[C@H](C(=O)N1CCC[C@H]1C(=O)NC(CS)C(=O)O)C(C)C` (single isomer, unassigned): 330 µM; for `CC[C@@H](C)[C@@H](NC(=O)[C@H](CC(=O)O)NC(=O)[C@H](CC(=O)O)NC(C)=O)C(=O)N[C@H](C(=O)N1CCC[C@H]1C(=O)N[C@@H](CS)C(=O)O)C(C)C`: 800 µM.
For the molecule `CC[C@H](C)[C@H](NC(=O)CCC(=O)O)C(=O)N[C@H](C(=O)N1CCC[C@H]1C(=O)N[C@@H](CS)C(=O)O)C(C)C` (Suc-IVPC-OH), inhibition was half-maximal at 830 µM (IC50).
On the same count and under the same terms, the same measure for `CC[C@H](C)[C@H](NC(=O)[C@H](CC(=O)O)NC(=O)[C@@H](CC(=O)O)NC(C)=O)C(=O)N[C@H](C(=O)N1CCC[C@H]1C(=O)N[C@@H](CS)C(=O)O)C(C)C`: 40 µM.
Take `CC[C@H](C)[C@H](NC(=O)C(NC(=O)[C@H](CC(=O)O)NC(C)=O)C(C)C)C(=O)N[C@H](C(=O)N1CCC[C@H]1C(=O)N[C@@H](CS)C(=O)O)C(C)C` (single isomer, unassigned): the IC50 stood at 7.5 µM.
Molecule Ac-DDAVPC-OH registered an IC50 of 580 µM.
The molecule H-GEAGDDIVPC-OH returned an IC50 of 52 µM.
Turning to `CC[C@H](C)[C@H](NC(=O)[C@H](CC(=O)O)NC(=O)[C@H](CC(=O)O)NC(C)=O)C(=O)NC(C(=O)N1CCC[C@H]1C(=O)N[C@@H](CS)C(=O)O)C(C)C` (single isomer, unassigned), the IC50 stood at 830 µM.
Still for that read-out and setting: as for Ac-DDIAPC-OH, the figure is 890 µM.
The molecule Ac-DAIVPC-OH displayed an IC50 of 140 µM.
Molecule `CC[C@H](C)[C@H](NC(=O)[C@H](CC(=O)O)NC(=O)[C@H](CC(=O)O)NC(C)=O)C(=O)N[C@H](C(=O)N1CCC[C@H]1C(=O)N[C@@H](CS)C(=O)O)C(C)C` [listing 2 of 2 here] yielded an IC50 of 28 µM.
